{
  "source": "patent US4659734A",
  "about": "“Olinecarboxylic acid derivatives” (Nippon Shinyaku Co., Ltd., priority 1983, dated 1987)",
  "key": {"[1]": {"tested_on": "Bacillus subtilis ATCC 6633", "assay": "Minimum growth inhibiting concentration, Japan Chemotherapeutic Society method", "format": "cell-based", "details": "ATCC6633; Bacillus subtilis ATCC 6633, Gram +; 5% horse blood added agar medium; read-out: Minimum Growth Inhibiting Concn", "experimental": "(§1) The Antibacterial activity of the compounds of Examples 14, 13, 22b, 21 and 15 was determined in accordance with the method of Japan Chemotherapeutic Society (cf. Nippon Kagaku Ryoho Gakkai Shi, volume 29, number 1, pages 76 to 79, 1981) and the results are reported in Table 1, which follows. | *5% Horse blood added agar medium for sensitivity measurement being used."}, "[2]": {"tested_on": "Streptococcus pneumoniae Type I", "assay": "Minimum growth inhibiting concentration, Japan Chemotherapeutic Society method", "format": "cell-based", "details": "Gram +, 5% horse blood added agar medium, read-out: Minimum Growth Inhibiting Concn", "experimental": "as §1"}, "[3]": {"tested_on": "Streptococcus pyogenes S-23", "assay": "Minimum growth inhibiting concentration, Japan Chemotherapeutic Society method", "format": "cell-based", "details": "S23; Streptococcus pyogenes S-23, Gram +; 5% horse blood added agar medium; read-out: Minimum Growth Inhibiting Concn", "experimental": "as §1"}, "[4]": {"tested_on": "Acinetobacter calcoacelicus 54", "assay": "Minimum growth inhibiting concentration, Japan Chemotherapeutic Society method", "format": "cell-based", "details": "Acinetobacter calcoacelicus 54, Gram -; read-out: Minimum Growth Inhibiting Concn", "experimental": "(§2) The Antibacterial activity of the compounds of Examples 14, 13, 22b, 21 and 15 was determined in accordance with the method of Japan Chemotherapeutic Society (cf. Nippon Kagaku Ryoho Gakkai Shi, volume 29, number 1, pages 76 to 79, 1981) and the results are reported in Table 1, which follows."}, "Escherichia coli KC-14 [5]": {"tested_on": "Escherichia coli KC-14", "assay": "Minimum growth inhibiting concentration, Japan Chemotherapeutic Society method", "format": "cell-based", "details": "KC14; Escherichia coli KC-14, Gram -; read-out: Minimum Growth Inhibiting Concn", "experimental": "as §2"}, "[6]": {"tested_on": "Klebsiella pneumoniae K-1966", "assay": "Minimum growth inhibiting concentration, Japan Chemotherapeutic Society method", "format": "cell-based", "details": "K1966; Klebsiella pneumoniae K-1966, Gram -; read-out: Minimum Growth Inhibiting Concn", "experimental": "as §2"}, "[7]": {"tested_on": "Listeria monocytogenes RIMD 1205020", "assay": "Minimum growth inhibiting concentration, Japan Chemotherapeutic Society method", "format": "cell-based", "details": "RIMD1205020; Listeria monocytogenes RIMD 1205020, Gram +; read-out: Minimum Growth Inhibiting Concn", "experimental": "as §2"}, "[8]": {"tested_on": "Pseudomonas cepacia ATCC 25416", "assay": "Minimum growth inhibiting concentration, Japan Chemotherapeutic Society method", "format": "cell-based", "details": "Burkholderia cepacia, ATCC25416; Pseudomonas cepacia ATCC 25416, Gram -; read-out: Minimum Growth Inhibiting Concn", "experimental": "as §2"}, "[9]": {"tested_on": "Serracia marcescens IFO 3736", "assay": "Minimum growth inhibiting concentration, Japan Chemotherapeutic Society method", "format": "cell-based", "details": "Serracia marcescens IFO 3736, Gram -; read-out: Minimum Growth Inhibiting Concn", "experimental": "as §2"}, "[10]": {"tested_on": "Staphylococcus aureus 209-PJC", "assay": "Minimum growth inhibiting concentration, Japan Chemotherapeutic Society method", "format": "cell-based", "details": "Gram +, read-out: Minimum Growth Inhibiting Concn", "experimental": "as §2"}, "[11]": {"tested_on": "Staphylococcus aureus Smith", "assay": "Minimum growth inhibiting concentration, Japan Chemotherapeutic Society method", "format": "cell-based", "details": "Gram +, read-out: Minimum Growth Inhibiting Concn", "experimental": "as §2"}, "[12]": {"tested_on": "Acimetobacter calcoaceticus", "assay": "Mouse intraperitoneal infection, survival after one week", "format": "in vivo, ddY strain mice", "details": "po, 1 × 10^7 per mouse, one dose per os 2 h after infection", "experimental": "(§3) ddY--Strain mice (male; body weight 20±1 grams) of SPF were innoculated with the bacteria set forth in Table 2 by administration of a supension of the bacterial in 4% mucin solution into the abdominal cavity. A compound of the invention was given one time per os two hours after the infection, and, from the survival rate after one week. 50% effective doses (ED50) were calculated by the Behrens-Karber method."}, "Escherichia coli KC-14 [13]": {"tested_on": "Escherichia coli KC-14", "assay": "Mouse intraperitoneal infection, survival after one week", "format": "in vivo, ddY strain mice", "details": "KC14, po; Escherichia coli KC-14, 5 × 10^4 per mouse; one dose per os 2 h after infection", "experimental": "as §3"}, "[14]": {"tested_on": "Klebsiella pneumoniae K-1966", "assay": "Mouse intraperitoneal infection, survival after one week", "format": "in vivo, ddY strain mice", "details": "K1966, po; Klebsiella pneumoniae K-1966, 3 × 10^3 per mouse; one dose per os 2 h after infection", "experimental": "as §3"}, "Proteus mirabilis 181": {"tested_on": "Proteus mirabilis 181", "assay": "Mouse intraperitoneal infection, survival after one week", "format": "in vivo, ddY strain mice", "details": "po; Proteus mirabilis 181, 2 × 10^7 per mouse; one dose per os 2 h after infection", "experimental": "as §3"}, "[15]": {"tested_on": "Pseudomonas aeruginosa E-2", "assay": "Mouse intraperitoneal infection, survival after one week", "format": "in vivo, ddY strain mice", "details": "E2, po; Pseudomonas aeruginosa E-2, 2 × 10^5 per mouse; one dose per os 2 h after infection; Behrens-Karber", "experimental": "as §3"}, "Serracia marcescens T-55": {"tested_on": "Serracia marcescens T-55", "assay": "Mouse intraperitoneal infection, survival after one week", "format": "in vivo, ddY strain mice", "details": "po; Serracia marcescens T-55, 5 × 10^6 per mouse; one dose per os 2 h after infection", "experimental": "as §3"}, "[16]": {"tested_on": "Staphylococcus aureus Smith", "assay": "Mouse intraperitoneal infection, survival after one week", "format": "in vivo, ddY strain mice", "details": "po, 3 × 10^6 per mouse, one dose per os 2 h after infection", "experimental": "as §3"}, "[17]": {"tested_on": "Pseudomonas aeruginosa E-2", "assay": "Ascending urinary tract infection", "format": "in vivo, ICR female mice", "experimental": "ICR Female mice (body weight 20±1 grams) of SPE strain were used in the experiments. The mice were not given any water for seventeen hours, then compulsorily urinated, anesthesized by the administration of 60 mg/kg of pentobarbital into the abdominal cavity, then 1.5×10^5 of Pseudomonas aeruginosa E-2 strain were impregnated into the bladder via the urinary tract, and the external urinary meatus was stopped for four hours by a pin clip, whereupon the mice were infected in the ascending urinary tract.\nThe compound of Example 22b was given once orally, 4 hours after infection, then twice a day, and the administration was continued for three days. On the fourth day, the kidney was isolated, homogenized in a physiological saline solution, and the number of bacteria was calculated on suitable medium such as, for example, Drigalski medium. If the number of bacteria per one gram of kidney was less than […], then the compound was judged as \"effective\"."}, "[18]": {"assay": "Blood serum concentration, disc method", "format": "in vivo, ddY strain mice", "experimental": "In this experiment, ddY strain mice (male; body weight 30±2 grams) were used. Sixty mg/kg of the compound of Example 22b were given per os. The blood concentration was calculated from calibration curves obtained by the disc method using Escherichia coli NIHJ strain as tested bacteria and diluting the test compound of mice serum."}, "Acute toxicity": {"assay": "Acute toxicity", "details": "mouse, in vivo; oral, groups of ten ddY male mice; read-out: 50% Lethal Doses (LD50)", "experimental": "Groups of ten ddY strain male mice (body weights: 20±1 grams) of the test compound were orally administered to determine the LD50. There was […] in which many mice died when the dose was 2000 mg/kg or less."}},
  "data": [
    {"smiles": "Cc1csc2c(C(=O)O)c(=O)c3cc(F)c(N4CCN(C)CC4)cc3n12", "note": "[Example 22b, 7-fluoro-1-methyl-8-(4-methyl-1-piperazinyl)-5-oxo-5H-thiazolo(3,2-a)-quinoline-4-carboxylic acid]", "values": [
      {"measurement": "MIC", "setting": "[1]", "value": 0.0008, "unit": "µg/mL"},
      {"measurement": "MIC", "setting": "[2]", "value": 0.39, "unit": "µg/mL"},
      {"measurement": "MIC", "setting": "[3]", "value": 0.2, "unit": "µg/mL"},
      {"measurement": "MIC", "setting": "[4]", "value": 0.2, "unit": "µg/mL"},
      {"measurement": "MIC", "setting": "Escherichia coli KC-14 [5]", "value": 0.013, "unit": "µg/mL"},
      {"measurement": "MIC", "setting": "[6]", "value": 0.05, "unit": "µg/mL"},
      {"measurement": "MIC", "setting": "[7]", "value": 0.2, "unit": "µg/mL"},
      {"measurement": "MIC", "setting": "[8]", "value": 0.2, "unit": "µg/mL"},
      {"measurement": "MIC", "setting": "[9]", "value": 0.39, "unit": "µg/mL"},
      {"measurement": "MIC", "setting": "[10]", "value": 0.013, "unit": "µg/mL"},
      {"measurement": "MIC", "setting": "[11]", "value": 0.053, "unit": "µg/mL"},
      {"measurement": "ED50", "setting": "[12]", "value": 17.5, "unit": "mg/kg"},
      {"measurement": "ED50", "setting": "Escherichia coli KC-14 [13]", "value": 1.1, "unit": "mg/kg"},
      {"measurement": "ED50", "setting": "[14]", "value": 2.7, "unit": "mg/kg"},
      {"measurement": "ED50", "setting": "Proteus mirabilis 181", "value": 13, "unit": "mg/kg"},
      {"measurement": "ED50", "setting": "[15]", "value": 13.1, "unit": "mg/kg"},
      {"measurement": "ED50", "setting": "Serracia marcescens T-55", "value": 5.4, "unit": "mg/kg"},
      {"measurement": "ED50", "setting": "[16]", "value": 2.4, "unit": "mg/kg"},
      {"measurement": "Number Of Mice Where Compound Was Effective/Total Mice Tested", "setting": "[17]; 3.13 mg/kg oral", "value": "1/7"},
      {"measurement": "Number Of Mice Where Compound Was Effective/Total Mice Tested", "setting": "[17]; 6.25 mg/kg oral", "value": "4/7"},
      {"measurement": "Number Of Mice Where Compound Was Effective/Total Mice Tested", "setting": "[17]; 12.5 mg/kg oral", "value": "4/7"},
      {"measurement": "Number Of Mice Where Compound Was Effective/Total Mice Tested", "setting": "[17]; 25 mg/kg oral", "value": "6/7"},
      {"measurement": "Number Of Mice Where Compound Was Effective/Total Mice Tested", "setting": "[17]; 50 mg/kg oral", "value": "7/7"},
      {"measurement": "Number Of Mice Where Compound Was Effective/Total Mice Tested", "setting": "[17]; 100 mg/kg oral, 4 h after infection then twice a day, three days", "value": "7/7"},
      {"measurement": "ED50", "setting": "[17]; Pseudomonas aeruginosa, E2, in Mus musculus, 72 h, ascending urinary tract infection, oral, three days, read-out: 50% Effective Dose", "value": 8, "unit": "mg/kg"},
      {"measurement": "concentration at 0.25 h", "setting": "[18]; mouse, serum, po, 0.25 hours, 60 mg/kg per os, average ± standard error", "value": "3400 ± 820", "unit": "ng/mL"},
      {"measurement": "concentration at 0.5 h", "setting": "[18]; mouse, serum, po, 0.5 hours, 60 mg/kg per os, average ± standard error", "value": "5400 ± 320", "unit": "ng/mL"},
      {"measurement": "concentration at 1 h", "setting": "[18]; mouse, serum, po, 1 hour, 60 mg/kg per os, average ± standard error", "value": "4200 ± 700", "unit": "ng/mL"},
      {"measurement": "concentration at 2 h", "setting": "[18]; mouse, serum, po, 2 hours, 60 mg/kg per os, average ± standard error", "value": "3300 ± 370", "unit": "ng/mL"},
      {"measurement": "concentration at 4 h", "setting": "[18]; mouse, serum, po, 4 hours, 60 mg/kg per os, average ± standard error", "value": "2500 ± 230", "unit": "ng/mL"},
      {"measurement": "blood concentration (in words)", "setting": "[18]; oral, mice", "value": "promptly gave high and sustained blood concentrations when administered orally"},
      {"measurement": "LD50", "setting": "Acute toxicity", "value": "> 2000", "unit": "mg/kg"}
    ]}
  ]
}
